Laboratory results: patent US8975232B2, “Macrocyclic kinase inhibitors and uses thereof” (President and Fellows of Harvard College, priority 2010, dated 2015)
Like-named read-outs stand apart in the source and are kept apart here. Values belong to the molecule of their own block, whether it stands above or below them.

Key:
[1] = target: MAPKAPK2 (Homo sapiens, UniProt P49137); experiment: In vitro selection of DNA-templated macrocycle library against GST-fused target; format: binding; conditions: one round of selection; DNA-linked library member
MAPKAPK2, sequence (P49137 whole entry, the tested form may be a part): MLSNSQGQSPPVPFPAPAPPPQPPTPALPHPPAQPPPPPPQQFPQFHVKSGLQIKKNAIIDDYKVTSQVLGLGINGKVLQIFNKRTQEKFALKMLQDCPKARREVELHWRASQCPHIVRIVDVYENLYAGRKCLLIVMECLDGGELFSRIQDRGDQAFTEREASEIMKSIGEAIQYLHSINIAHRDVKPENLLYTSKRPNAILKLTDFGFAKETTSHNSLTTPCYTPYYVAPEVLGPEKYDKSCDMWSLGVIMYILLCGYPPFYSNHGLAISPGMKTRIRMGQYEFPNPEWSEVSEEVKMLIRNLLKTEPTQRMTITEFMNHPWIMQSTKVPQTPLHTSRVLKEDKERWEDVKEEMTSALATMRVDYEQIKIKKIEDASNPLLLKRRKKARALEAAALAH
Description: (§1) Multiple representatives were chosen from each protein class so that we could compare selection results within protein families. In total, we performed a single round of in vitro selection against 36 protein targets. Additionally, we also performed a selection for binding to GST (with no fused target protein) immobilized on glutathione-linked resin. Although successive rounds of selection (with or without DNA amplification and translation between rounds) can multiply net enrichment factors,^29 we hypothesized that recent advances in ultra high-throughput DNA sequencing would enable even modest enrichment factors to be robustly detected, and the findings in this work are the result of a single round of selection on each protein target.
(§2) Following in vitro selection, DNA templates linked to target-binding macrocycles were amplified in PCR reactions using primers containing “barcode” sequences specific to each selection (FIG. 3). We also amplified DNA templates from eight aliquots of the unselected library to determine the initial abundance of each library member. A set of 12 five-base barcodes used in pairwise combinations provided sufficient encoding complexity for one round of selection against 36 protein targets, a control selection against immobilized GST, and eight pre-selection library samples (Table 3). These barcodes were designed to differ by at least three bases from one another so that common DNA sequencing errors would not preclude barcode assignment. After affinity selection and PCR amplification, barcoded samples were combined in equimolar amounts and submitted for ultra high-throughput DNA sequencing^46,47 as a single sample.
(§3) To rapidly identify the DNA-linked macrocycles that survived target affinity selection, we used Solexa (Illumina) DNA sequencing technology.^48 Because standard Solexa sequencing read lengths at the time of this experiment were shorter than the length of our barcoded library templates (84 base pairs), the paired-end sequencing method, which provides both forward and reverse sequencing reads for each template, was used. We created a PERL computer program to analyze the large amount of data emerging from high-throughput sequencing. First, forward and reverse sequence reads were merged to give complete template sequences (FIG. 4a). Each complete DNA sequence was converted into a combination of a barcode (selection identity) and three codons (building block identities). Template sequences were then binned by barcode to deconvolute the results of each selection. The abundance fraction of each library member was determined within each selection by counting the number of corresponding DNA sequence occurrences and dividing by the total number of interpretable sequence reads for that selection. Finally, enrichment factors for each library member were computed by dividing post-selection abundance fraction by pre-selection abundance fraction. In total, we received 25.6 million paired forward and reverse sequence reads from two Solexa sequencing runs. Of these, all four codons (which require five out of six correct bases per codon for the building blocks, and three out of three correct bases per codon for the scaffold^24) and the selection barcode (which requires four out of five correct bases) could be conclusively assigned for 12.4 million sequences. As a result, we obtained ˜200,000 sequence reads for each selection, and 1.7 million sequence reads of the pre-selection library.
(§4) In vitro selections of the 13,824-membered library were conducted exactly as described above for the positive control selections. For each selection, 5 pmol of library were used. PCR amplification of selection survivors was performed with 5′-barcoded forward and reverse primers. Barcoded PCR amplicons were quantitated using Picogreen dsDNA quantitation reagent (Invitrogen), mixed in equimolar amounts, and submitted for high-throughput DNA sequencing.

[2] = target: Pim1 (Homo sapiens, UniProt P11309); experiment: as above; format: binding; conditions: one round of selection; DNA-linked library member
Pim1, sequence (P11309 whole entry): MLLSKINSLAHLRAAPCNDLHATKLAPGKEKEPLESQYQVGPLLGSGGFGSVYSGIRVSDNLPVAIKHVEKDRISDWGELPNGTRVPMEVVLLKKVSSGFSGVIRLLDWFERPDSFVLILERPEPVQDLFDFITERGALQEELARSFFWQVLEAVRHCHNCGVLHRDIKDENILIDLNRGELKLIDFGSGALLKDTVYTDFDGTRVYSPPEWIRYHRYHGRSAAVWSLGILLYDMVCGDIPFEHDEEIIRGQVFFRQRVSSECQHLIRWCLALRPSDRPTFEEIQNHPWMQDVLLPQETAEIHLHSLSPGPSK
Description: as §1, §2, §3, §4

[3] = target: T1, Src kinase (Homo sapiens, UniProt P12931); experiment: as above; format: binding; conditions: one round of selection; DNA-linked library member
T1 sequence (P12931 whole entry): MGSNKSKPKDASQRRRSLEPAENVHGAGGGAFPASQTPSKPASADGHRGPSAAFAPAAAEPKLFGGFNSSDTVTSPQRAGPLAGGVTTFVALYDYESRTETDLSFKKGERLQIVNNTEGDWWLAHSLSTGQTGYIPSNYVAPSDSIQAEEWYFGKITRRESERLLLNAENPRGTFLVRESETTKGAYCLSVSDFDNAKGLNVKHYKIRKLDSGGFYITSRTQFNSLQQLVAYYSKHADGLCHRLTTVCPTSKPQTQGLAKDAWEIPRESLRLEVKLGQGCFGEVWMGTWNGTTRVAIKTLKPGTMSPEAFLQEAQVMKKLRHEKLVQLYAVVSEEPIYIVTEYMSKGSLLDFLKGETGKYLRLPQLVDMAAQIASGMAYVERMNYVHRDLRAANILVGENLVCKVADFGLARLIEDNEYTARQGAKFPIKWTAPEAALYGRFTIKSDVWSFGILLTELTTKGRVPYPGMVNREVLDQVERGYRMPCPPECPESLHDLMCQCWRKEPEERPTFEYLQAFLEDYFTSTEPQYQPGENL
Description: as §1, §2, §3, §4

[4] = target: ABL1 (Homo sapiens, UniProt P00519); experiment: SelectScreen kinase profiling; format: biochemical
ABL1, sequence (P00519 whole entry): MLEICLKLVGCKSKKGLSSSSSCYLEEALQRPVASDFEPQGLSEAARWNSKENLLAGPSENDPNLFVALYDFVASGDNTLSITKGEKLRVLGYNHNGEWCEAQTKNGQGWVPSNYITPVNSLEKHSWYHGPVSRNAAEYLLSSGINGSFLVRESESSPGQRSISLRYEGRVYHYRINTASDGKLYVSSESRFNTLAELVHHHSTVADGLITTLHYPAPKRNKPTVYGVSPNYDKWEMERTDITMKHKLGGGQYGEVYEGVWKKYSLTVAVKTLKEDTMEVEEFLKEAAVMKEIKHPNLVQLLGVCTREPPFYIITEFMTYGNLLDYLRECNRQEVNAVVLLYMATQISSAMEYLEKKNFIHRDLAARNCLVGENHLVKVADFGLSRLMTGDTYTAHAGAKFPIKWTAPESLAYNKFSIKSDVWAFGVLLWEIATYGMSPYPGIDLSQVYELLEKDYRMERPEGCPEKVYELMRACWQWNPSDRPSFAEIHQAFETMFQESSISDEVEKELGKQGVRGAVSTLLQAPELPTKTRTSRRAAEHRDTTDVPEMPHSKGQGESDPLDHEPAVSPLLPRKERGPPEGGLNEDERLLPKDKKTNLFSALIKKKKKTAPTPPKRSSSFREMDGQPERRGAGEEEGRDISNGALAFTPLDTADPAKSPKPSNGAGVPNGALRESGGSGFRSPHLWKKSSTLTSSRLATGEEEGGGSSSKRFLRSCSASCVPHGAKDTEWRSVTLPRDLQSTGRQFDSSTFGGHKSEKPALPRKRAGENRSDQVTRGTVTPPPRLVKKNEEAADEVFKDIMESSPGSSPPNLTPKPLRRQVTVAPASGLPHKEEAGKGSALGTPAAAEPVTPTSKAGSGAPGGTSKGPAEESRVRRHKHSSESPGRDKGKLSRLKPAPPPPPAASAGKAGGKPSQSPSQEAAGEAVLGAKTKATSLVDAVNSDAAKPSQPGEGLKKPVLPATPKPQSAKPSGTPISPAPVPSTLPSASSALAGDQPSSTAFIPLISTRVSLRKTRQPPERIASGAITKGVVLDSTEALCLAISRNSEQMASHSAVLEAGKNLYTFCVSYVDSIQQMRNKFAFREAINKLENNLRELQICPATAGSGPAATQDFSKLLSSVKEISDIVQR
Experimental: (§5) Src IC50 determinations and single-point inhibition measurements were performed using Invitrogen's Z′-LYTE Tyr 02 assay kit according to the manufacturer's protocols. All kinase assays were performed at ATP concentrations near KM,ATP values, except where noted otherwise. Active human Src kinase was obtained from Millipore. For kinome profiling and IC50 determinations against non-Src kinases, compounds were submitted to Invitrogen's SelectScreen Kinase Profiling Service.

[5] = target: T2, AURKA (Aurora A) (Homo sapiens, UniProt O14965); experiment: SelectScreen kinase profiling; format: biochemical
T2 sequence (O14965 1-403): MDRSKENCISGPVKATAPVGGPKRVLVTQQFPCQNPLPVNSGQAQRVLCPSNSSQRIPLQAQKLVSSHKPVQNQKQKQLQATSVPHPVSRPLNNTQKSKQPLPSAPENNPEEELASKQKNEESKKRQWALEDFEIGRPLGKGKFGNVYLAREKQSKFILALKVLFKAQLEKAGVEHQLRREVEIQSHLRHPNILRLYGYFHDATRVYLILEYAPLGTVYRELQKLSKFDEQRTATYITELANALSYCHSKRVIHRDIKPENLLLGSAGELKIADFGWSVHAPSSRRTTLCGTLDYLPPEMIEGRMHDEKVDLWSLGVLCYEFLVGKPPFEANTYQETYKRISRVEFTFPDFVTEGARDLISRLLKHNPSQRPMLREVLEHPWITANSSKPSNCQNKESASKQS
Experimental: as §5

[6] = target: T1, Src kinase; experiment: Z'-LYTE kinase assay (Invitrogen), Src; format: biochemical; set-up: full-length kinase in the Z-LYTE assay vs. kinase domain in the current study; purchased Millipore
Experimental: Nine macrocycles enriched in the Src selection (FIG. 5) and synthesized as described above were assayed in vitro for the ability to inhibit Src kinase activity. Kinase activity was assayed in the presence of varying concentrations of macrocycle using the FRET-based Z′-LYTE assay (Invitrogen).
as §5

[7] = tested on: panel of 58 commercially available human protein kinases; experiment: Kinase selectivity panel, Invitrogen SelectScreen; format: biochemical
Experimental: Macrocycle cis-A11-B1-C5-D7 was assayed at 50 μM against a representative panel of 58 commercially available human protein kinases including all nine mammalian Src family kinases (Table 8).
as §5

[8] = target: AURKB (Aurora B) (Homo sapiens, UniProt Q96GD4); experiment: SelectScreen kinase profiling; format: biochemical
AURKB (Aurora B), sequence (Q96GD4 whole entry): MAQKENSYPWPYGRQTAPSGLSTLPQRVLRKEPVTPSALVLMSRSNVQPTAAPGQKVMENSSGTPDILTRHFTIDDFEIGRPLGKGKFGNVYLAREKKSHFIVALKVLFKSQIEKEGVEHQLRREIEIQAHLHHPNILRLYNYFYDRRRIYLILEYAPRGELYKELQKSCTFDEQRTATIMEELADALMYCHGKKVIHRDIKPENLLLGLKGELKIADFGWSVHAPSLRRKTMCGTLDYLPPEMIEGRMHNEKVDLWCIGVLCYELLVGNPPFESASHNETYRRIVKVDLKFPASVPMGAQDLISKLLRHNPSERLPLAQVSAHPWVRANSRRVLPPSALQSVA
Experimental: as §5

[9] = target: FGR (Homo sapiens, UniProt P09769); experiment: SelectScreen kinase profiling; format: biochemical; conditions: Fgr; 10-point titration
Experimental: as §5

[10] = target: FYN (Homo sapiens, UniProt P06241); experiment: SelectScreen kinase profiling; format: biochemical
FYN, sequence (P06241 whole entry): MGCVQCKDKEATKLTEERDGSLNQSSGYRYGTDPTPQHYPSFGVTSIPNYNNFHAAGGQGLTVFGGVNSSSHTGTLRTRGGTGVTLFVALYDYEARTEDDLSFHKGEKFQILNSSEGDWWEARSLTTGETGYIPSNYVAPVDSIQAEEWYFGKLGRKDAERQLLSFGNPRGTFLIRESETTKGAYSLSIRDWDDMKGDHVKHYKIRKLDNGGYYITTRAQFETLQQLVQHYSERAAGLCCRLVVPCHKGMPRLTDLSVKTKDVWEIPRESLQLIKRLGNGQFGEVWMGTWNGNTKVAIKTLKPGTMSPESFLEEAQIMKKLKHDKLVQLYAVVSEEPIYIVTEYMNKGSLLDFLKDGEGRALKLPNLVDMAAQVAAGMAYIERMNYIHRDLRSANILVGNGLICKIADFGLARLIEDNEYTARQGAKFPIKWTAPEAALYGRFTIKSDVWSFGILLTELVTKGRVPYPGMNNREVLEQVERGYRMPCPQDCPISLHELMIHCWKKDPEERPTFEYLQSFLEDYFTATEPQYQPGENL
Experimental: as §5

[11] = target: T3, HCK (Homo sapiens, UniProt P08631); experiment: SelectScreen kinase profiling; format: biochemical
Experimental: as §5
Target sequence in this assay (P08631 whole entry): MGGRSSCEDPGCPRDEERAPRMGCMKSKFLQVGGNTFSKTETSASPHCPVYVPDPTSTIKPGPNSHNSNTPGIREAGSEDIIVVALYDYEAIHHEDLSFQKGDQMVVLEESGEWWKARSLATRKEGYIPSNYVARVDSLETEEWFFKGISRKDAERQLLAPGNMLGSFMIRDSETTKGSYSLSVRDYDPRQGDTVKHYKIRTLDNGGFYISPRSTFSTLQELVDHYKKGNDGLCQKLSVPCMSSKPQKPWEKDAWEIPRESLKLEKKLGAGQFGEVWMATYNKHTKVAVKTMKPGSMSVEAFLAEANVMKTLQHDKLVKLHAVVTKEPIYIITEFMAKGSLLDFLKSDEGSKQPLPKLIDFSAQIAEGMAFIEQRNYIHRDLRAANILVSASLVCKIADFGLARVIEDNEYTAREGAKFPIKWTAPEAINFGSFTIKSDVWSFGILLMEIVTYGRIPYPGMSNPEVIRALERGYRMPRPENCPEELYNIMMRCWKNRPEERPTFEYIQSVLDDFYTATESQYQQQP

[12] = target: RET (Homo sapiens, UniProt P07949); experiment: SelectScreen kinase profiling; format: biochemical; conditions: 10-point titration
Experimental: as §5

[13] = target: T4, Abl (Homo sapiens, UniProt P00519); experiment: Continuous spectrophotometric kinase activity assay; format: biochemical
T4 construct: human c-Abl (residues 229-512); made in house
T4 sequence (P00519 229-512): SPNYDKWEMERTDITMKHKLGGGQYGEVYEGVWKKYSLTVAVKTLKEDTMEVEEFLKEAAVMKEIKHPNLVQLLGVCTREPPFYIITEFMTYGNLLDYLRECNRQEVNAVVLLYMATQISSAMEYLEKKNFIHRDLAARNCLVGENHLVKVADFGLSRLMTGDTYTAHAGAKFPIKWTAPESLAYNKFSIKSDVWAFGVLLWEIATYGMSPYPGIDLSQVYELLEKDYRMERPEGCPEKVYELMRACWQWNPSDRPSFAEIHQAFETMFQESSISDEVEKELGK
Description: (§6) Kinase domain constructs of human c-Abl (residues 229-512), chicken c-Src (residues 251-533 and residues 83-533), murine Lck (residues 227-509), and human Hck (residues 166-445) were expressed as previously described (Seeliger, Young et al. 2005; Seeliger, Nagar et al. 2007; the entire contents of each of which are incorporated by reference herein). Mutations were introduced into chicken c-Src (residues 251-533) (T338I, C277Q, L297M) by site-directed mutagenesis and verified by DNA sequencing.
(§7) In vitro kinase inhibition assays were performed using either a continuous spectrophotometric assay or a FRET-based endpoint assay.
(§8) The original characterization of kinase inhibition was performed with a commercial kinase assay that relies on a fluorescently labeled peptide kinase substrate (Z-LYTE, Invitrogen). For further characterization, a continuous spectrophotometric kinase activity assay was employed that is easily adapted to different substrate peptides as well as a wider range of peptide and ATP concentrations.

[14] = target: T5, Src kinase domain (chicken c-Src residues 251-533) (Gallus gallus, UniProt P00523); experiment: as above; format: biochemical; conditions: for IC50: Src kinase domain
T5 construct: chicken c-Src (residues 251-533 and residues 83-533); made in house
Description: as §6, §7, §8

[15] = target: T6, Lck (Mus musculus, UniProt P06240); experiment: as above; format: biochemical, murine
T6 construct: murine Lck (residues 227-509); made in house
T6 sequence (P06240 227-509): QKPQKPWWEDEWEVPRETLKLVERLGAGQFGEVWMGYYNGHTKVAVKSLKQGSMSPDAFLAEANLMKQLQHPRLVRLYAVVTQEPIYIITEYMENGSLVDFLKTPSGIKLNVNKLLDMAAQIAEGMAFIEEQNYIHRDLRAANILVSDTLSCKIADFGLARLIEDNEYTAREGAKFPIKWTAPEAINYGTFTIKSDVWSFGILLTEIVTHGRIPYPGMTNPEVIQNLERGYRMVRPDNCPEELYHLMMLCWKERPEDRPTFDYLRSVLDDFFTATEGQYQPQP
Description: as §6, §7, §8

[16] = target: T7, Src kinase domain (Gallus gallus, UniProt P00523); experiment: Fluorescence anisotropy binding assay; set-up: species or system chicken; conditions: fluorescein-labeled macrocycle, read-out: dissociation constant (KD)
T7 construct: chicken c-Src (residues 251-533 and residues 83-533); made in house
Experimental: The change in fluorescence anisotropy of fluorescein-labeled MC1, MC4 and MC9 at 518 nm upon excitation at 492 nm was monitored with a HORIBA Jobin Yvon FluoroMax-4 (Edison, N.J.) spectrofluorimeter. Kinase was titrated to 0.5 μM of the fluorescently labeled macrocycle in 100 mM Tris pH 8.0, 10 mM MgCl2 at 25° C. After equilibration, the increase in the fluorescence anisotropy of the fluorescently labeled ligand was recorded and fitted against a quadratic binding equation in Kaleidagraph (Synergy Software, Reading Pa.) to yield the dissociation constant KD.
To clarify the inhibitory mechanism of the compounds further, the binding affinity of fluorescently labeled MC1, MC4, and MC9 to Src kinase domain was determined in a fluorescence anisotropy assay (FIG. 21).

[17] = target: T3, HCK; experiment: Continuous spectrophotometric kinase activity assay; format: biochemical; set-up: Kinase domain constructs of human c-Abl (residues 229-512), chicken c-Src (residues 251-533 and residues 83-533), murine Lck (residues 227-509), and human Hck (residues 166-445); made in house
Description: as §6, §7, §8
Target sequence in this assay (P08631 262-515 limits assumed): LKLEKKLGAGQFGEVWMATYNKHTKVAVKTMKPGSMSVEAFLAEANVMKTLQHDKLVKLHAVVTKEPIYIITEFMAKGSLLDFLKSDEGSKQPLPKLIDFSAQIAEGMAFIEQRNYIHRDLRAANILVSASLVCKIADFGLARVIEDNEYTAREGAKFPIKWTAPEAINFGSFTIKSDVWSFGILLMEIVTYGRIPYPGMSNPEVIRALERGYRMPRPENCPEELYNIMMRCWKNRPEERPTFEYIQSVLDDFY

[18] = tested on: protein kinases; conditions: judged by similar criteria; cited from earlier work
[19] = target: BcLxL (1-209, Δ45-84, N-terminal GST-fused) (UniProt Q07817); experiment: single round of affinity selection of the DNA-linked peptide on GST-Bcl-xL on glutathione beads; restriction digestion
BcLxL (1-209, Δ45-84, N-terminal GST-fused), sequence (Q07817 other isoform, or with tags, fused parts or gaps mutant): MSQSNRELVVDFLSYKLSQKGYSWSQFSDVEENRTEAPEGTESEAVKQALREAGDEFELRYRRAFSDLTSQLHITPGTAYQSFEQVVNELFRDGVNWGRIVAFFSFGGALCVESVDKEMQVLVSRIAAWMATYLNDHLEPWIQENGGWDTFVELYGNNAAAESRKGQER

[20] = 5 μM ATP, 100 μM Src optimal peptide
[21] = 5 μM ATP, 300 μM Src optimal peptide
[22] = 250 μM ATP, 300 μM Src optimal peptide

Molecule: NC(=O)[C@@H]1CCNC(=O)C=CC(=O)N[C@@H](C/C=C/c2ccccc2)C(=O)N[C@@H](CC2CCCCC2)C(=O)N[C@H](Cc2ccc(C(=O)c3ccccc3)cc2)C(=O)N1 [A12-B8-C10-D3]
enrichment upon selection for binding MAPKAPK2 [1]: 3 fold
enrichment upon selection for binding Pim1 [2]: 3.5 fold

Molecule: NC(=O)[C@@H]1CNC(=O)C=CC(=O)N[C@@H](C/C=C/c2ccccc2)C(=O)N[C@@H](CC2CCCCC2)C(=O)N[C@H](Cc2ccc(C(=O)c3ccccc3)cc2)C(=O)N1 [A12-B8-C10-D4]
enrichment upon selection for binding MAPKAPK2 [1]: 3 fold
enrichment upon selection for binding Pim1 [2]: 10 fold

Molecule: NC(=O)[C@@H]1CNC(=O)[C@@H](Cc2ccc(C(=O)c3ccccc3)cc2)NC(=O)[C@H](CC2CCCCC2)NC(=O)[C@H](C/C=C/c2ccccc2)NC(=O)C=CC(=O)N1 [A12-B8-C10-D8]
enrichment upon selection for binding MAPKAPK2 [1]: 2.5 fold
enrichment upon selection for binding Pim1 [2]: 6 fold

enrichment factor after selection against Src kinase [3]: 62 fold
selectivity for Src over Abl kinase [4]: > 50 fold
selectivity for Aurora A among the Aurora family [5]: > 100 fold
difference in potency between cis and trans stereoisomers (Src) [6]: ~10 fold
Molecule: NC(=O)[C@@H]1CCNC(=O)[C@H](CCCNC(=O)c2cnccn2)NC(=O)[C@H](Cc2ccco2)NC(=O)[C@H](CC2CC2)NC(=O)C=CC(=O)N1 [Macrocycle A11-B1-C5-D7]

Molecule: NC(=O)[C@@H]1CCNC(=O)[C@H](CCCNC(=O)c2cnccn2)NC(=O)[C@H](Cc2ccco2)NC(=O)[C@H](CC2CC2)NC(=O)/C=C\C(=O)N1 [cis-A11-B1-C5-D7]
selectivity for Src over all remaining Src-family kinases with the exception of Fgr [7]: > 10 fold
selectivity score ([7]; fraction of non-target kinases with IC50 within 10-fold of Src IC50 (960 nM)): 0.05
selectivity for Src over Abl kinase [4]: > 50 fold
IC50 ([5]; Aurora A, 10-point titration): 1.7 µM
selectivity for Aurora A over Aurora B [8]: > 50 fold
IC50 [9]: 4 µM
selectivity for Src over Fyn [10]: > 50 fold
selectivity for Src over Hck [11]: > 50 fold
IC50 [12]: 5.7 µM
IC50 [13, 20]: > 100 µM
IC50 [13, 21]: > 100 µM
IC50 [13, 22]: > 100 µM
IC50 [14, 20]: 16 µM
IC50 [14, 21]: 26 µM
IC50 [14, 22]: 89 µM
increase in IC50 upon increasing substrate peptide 3-fold to 300 μM ([14]; Src optimal substrate peptide 100 to 300 μM): 50%
IC50 [15, 20]: > 100 µM
IC50 [15, 21]: > 100 µM
IC50 [15, 22]: > 100 µM
Kd ([16]; 250 μM AMP-PNP): 3.3 µM
Kd ([16]; no competitor): 2.1 µM
IC50 ([6]; Z'-LYTE, ATP near KM): 0.96 µM
mode of Src inhibition ([6]; apparent KM for ATP versus macrocycle concentration): ATP-competitive
IC50 [17, 20]: > 100 µM
IC50 [17, 21]: > 100 µM
IC50 [17, 22]: > 100 µM

Molecule: CN[C@@H]1C[C@H]2O[C@@](C)([C@@H]1OC)n1c3ccccc3c3c4c(c5c6ccccc6n2c5c31)C(=O)NC4 [staurosporine]
selectivity score [18]: 0.50

Enrichment Factor [19]: 200
Molecule: Bak peptide (DNA-linked)
